As a reminder, the solubility is the dissolved amount per volume that the medium holds. Usually IC50 stands for the concentration at which inhibition is half-maximal. Low readings indicate greater potency in that assay, high ones weaker potency in that assay.

≈ marks a conversion by molar mass, not a printed value. Where a name gives a salt, the structure may show the parent alone. Read-outs that look alike come from different tables or passages of the source.

One data set in a line: Test 3: solubility test. It is filed as physicochemical. The settings on record: kinetic from dmso stock, 1% DMSO, HPLC. On the procedure:
Each 15 μL of each test sample (10 mM DMSO solution) was dispensed into 4 Utubes on a 96 well rack. Then, each sample was evaporated to dryness with a rotary evaporator. 3 μL of DMSO was added to each dried sample to be re-dissolved. And, 300 μL of pH 7.4 buffer was added to the 2 wells and 300 μL of pH 1.2 buffer was added to the other 2 wells. After shaking each sample solution, the samples were still stood. Then, each sample solution was centrifuged to remove insoluble matter, and 100 μL of the supernatant was picked up on a 96 well plate. Separately, 2 μL of each test sample (10 mM DMSO solution) was dispensed on a 96 well plate, and diluted with 198 μL of 50% acetonitrile to prepare each 100 μM standard solution. Further, the 100 μM standard solution was diluted with 50% acetonitrile to prepare each 10 μM standard solution. The above test samples for the solubility test and the two kinds of the standard samples were analyzed with a HPLC. The solubility of each test sample was calculated as an area ratio per the standard solutions.

Data set [1] concerns HT-29 cell. Put plainly: Test 1: growth inhibition in cancer cell (Bulk IC50). It is filed as cell-based. As to conditions: Homo sapiens, 96 h, adherent culture, incubated 4 days, CellTiter-Glo. On the procedure: (§1) HCT-116 cell, HT-29 cell, and FaDu cell were obtained from the American Type Culture Collection (ATCC). HCT-116 cell and HT-29 cell were cultivated at 37° C. in the presence of 5% CO2 using McCoy's 5a medium containing 10% fetal bovine serum (FBS), and 1% penicillin/streptomycin; and FaDu cell was cultivated at 37° C. in the presence of 5% CO2 using MEM containing 10% FBS, 1% non-essential amino acid, 1% sodium pyruvate, and 1% penicillin/streptomycin. Each cell was seeded on μClear-plate black 384 wells (Greiner bio-one Cat. No. 781091) in 300-600 cells/well, and then each test sample was added thereto to adjust the final concentration thereof in DMSO to 0.1% and the test wells were incubated for 4 days. And then, the viable cell count of each sample was measured using CellTiter-Glo® Luminescent Cell Viability Assay (Promega), and the concentration to inhibit the cell growth in each test sample by 50% was calculated (Bulk IC50 Value; μM).

For data set [2], the system named is HCT-116 cell. The description is as above. In kind it is cell-based. As to conditions: Homo sapiens, 96 h, adherent culture, incubated 4 days, CellTiter-Glo. On the procedure: as §1
Data set [3] relates to FaDu cell. Described as above. It is filed as cell-based. As to conditions: Homo sapiens, 96 h, adherent culture, incubated 4 days, CellTiter-Glo. On the procedure:
as §1

Data set [4] has as its system HT-29 cell. Put plainly: Test 2: inhibition of forming cancer cell sphere (Sphere IC50). In kind it is cell-based. As to conditions: Homo sapiens, 96 h, ultra-low attachment plate, serum-free sphere medium, 4 days, CellTiter-Glo. On the procedure: (§2) HCT-116 cell, HT-29 cell, and FaDu cell were obtained from the American Type Culture Collection (ATCC). HCT-116 cell and HT-29 cell were cultivated at 37° C. in the presence of 5% CO2 using McCoy's 5a medium containing 10% fetal bovine serum (FBS), and 1% penicillin/streptomycin; and FaDu cell was cultivated at 37° C. in the presence of 5% CO2 using MEM containing 10% FBS, 1% non-essential amino acid, 1% sodium pyruvate, and 1% penicillin/streptomycin. Each of HCT-116 cell, HT-29 cell, and FaDu cell was seeded on 384 Wells Black Clear Bottom Ultra-Low Attachment Microplate (Corning Cat. No. 3827) in 350-800 cells/well, with DMEM/F12 medium containing 2% B27 supplement (GIBCO), 20 ng/mL epidermal growth factor (EGF) (peprotech), 10 ng/mL basic fibroblast growth factor (bFGF) (peprotech), 5 μg/mL insulin (Sigma), and 1% penicillin/streptomycin. Each test sample was added thereto to adjust the final concentration thereof in DMSO to 0.1% and the test wells were incubated for 4 days. And then, the viable cell count of each sample was measured using CellTiter-Glo® Luminescent Cell Viability Assay (Promega), and the concentration to inhibit the cell growth in each test sample by 50% was calculated (Sphere IC50 Value;μM).
On the technique in general: ATP-based viability assays read luminescence as a measure of living cells.

For data set [5], the system named is HCT-116 cell. The description is as above. In kind it is cell-based. As to conditions: Homo sapiens, 96 h, ultra-low attachment plate, serum-free sphere medium, 4 days, CellTiter-Glo. On the procedure: as §2
Data set [6] concerns FaDu cell. The description is as above. As to conditions: Homo sapiens, 96 h, ultra-low attachment plate, serum-free sphere medium, 4 days, CellTiter-Glo. In kind it is cell-based. On the procedure:
as §2

The mark [7] stands for this setting: aqueous buffer, pH 7.4 buffer, read-out: Solubility pH 7.4.
[8] abbreviates: simulated gastric fluid, pH 1.2 buffer, read-out: Solubility pH 1.2.

With `CC(=O)c1oc2c(c1C(=O)N(C)C)C(=O)c1ccccc1C2=O` [Example 4, 2-Acetyl-N,N-dimethyl-4,9-dioxo-4,9-dihydronaphtho[2,3-b]furan-3-carboxamide], the solubility in “Test 3: solubility test” (setting [7]) was 107 µg/mL (≈ 344 µM); in “Test 3: solubility test” (setting [8]), 115 µg/mL (≈ 369 µM). The 50% inhibitory concentration (IC50) in the data set with HT-29 cell [1] was determined as 710 nM; in the data set with HCT-116 cell [2], 590 nM; in the data set on FaDu cell [3], 560 nM; in the data set with HT-29 cell [4], 850 nM; with HCT-116 cell [5] it was 3360 nM; with FaDu cell [6], 710 nM.

With `CN(C)C(=O)c1c(-c2ccc(F)cc2)oc2c1C(=O)c1ccccc1C2=O` [Example 11, 2-(4-Fluorophenyl)-N,N-dimethyl-4,9-dioxo-4,9-dihydronaphtho[2,3-b]furan-3-carboxamide], the solubility in the data set “Test 3: solubility test” (setting [7]) and in the data set “Test 3: solubility test” (setting [8]) was below 0.1 µg/mL each time. The half-maximal inhibitory concentration (IC50) in the data set on HT-29 cell [1] amounted to 5760 nM; in the data set on HCT-116 cell [2], 5310 nM; in the data set on FaDu cell [3], 4470 nM; with HT-29 cell [4], 5840 nM; in the data set on HCT-116 cell [5], 5430 nM; in the data set on FaDu cell [6] it was 4460 nM.

Take `CC(=O)c1oc2c(c1C(=O)N1CCN(C)CC1)C(=O)c1ccccc1C2=O` [Example 5, 2-Acetyl-3-(4-methylpiperazine-1-carbonyl)naphtho[2,3-b]furan-4,9-dione hydrochloride]: the solubility in the data set “Test 3: solubility test” (setting [7]) is 127 µg/mL; in “Test 3: solubility test” (setting [8]), 152 µg/mL. Further, the IC50 with HT-29 cell [1] was 570 nM; in the data set on HCT-116 cell [2], 620 nM; in the data set with FaDu cell [3], 540 nM; with HT-29 cell [4] it was 600 nM; with HCT-116 cell [5], 3100 nM; in the data set on FaDu cell [6] it was 660 nM.

In the case of `CC(=O)c1oc2c(c1C(=O)N1CCOCC1)C(=O)c1ccccc1C2=O` [Example 14, 2-Acetyl-3-(morpholine-4-carbonyl)naphtho[2,3-b]furan-4,9-dione], the solubility in “Test 3: solubility test” (setting [7]) is 121 µg/mL (≈ 342 µM); in “Test 3: solubility test” (setting [8]), 131 µg/mL (≈ 371 µM). Further, the IC50 with HT-29 cell [1] was 3580 nM; in the data set with HCT-116 cell [2], 740 nM; in the data set with FaDu cell [3], 750 nM; with HT-29 cell [4] it was 710 nM; in the data set on HCT-116 cell [5], 1800 nM; in the data set with FaDu cell [6] it was 540 nM.

Consider `COC(=O)c1c(C(C)(OC)OC)oc2c1C(=O)c1ccccc1C2=O` [Example 1, Methyl 2-(1,1-dimethoxyethyl)-4,9-dioxo-4,9-dihydronaphtho[2,3-b]furan-3-carboxylate], for which the half-maximal inhibitory concentration (IC50) with HT-29 cell [1] was 2250 nM; with HCT-116 cell [2], 440 nM; in the data set on FaDu cell [3] it was 380 nM; in the data set with HT-29 cell [4], 2180 nM; with HCT-116 cell [5], 1730 nM; in the data set on FaDu cell [6], 2150 nM.

For `COC(=O)c1c(-c2cccnc2)oc2c1C(=O)c1ccccc1C2=O` [Example 12, Methyl 4,9-dioxo-2-(pyridin-3-yl)-4,9-dihydronaphtho[2,3-b]furan-3-carboxylate], the IC50 in the data set with HT-29 cell [1] is above 10000 nM; in the data set on HCT-116 cell [2], 6960 nM; with FaDu cell [3], 2340 nM; in the data set on HT-29 cell [4] it was above 10000 nM; in the data set on HCT-116 cell [5] it was above 10000 nM; with FaDu cell [6] it was 5790 nM.

Turning to `COC(=O)c1c(C(F)(F)F)oc2c1C(=O)c1ccccc1C2=O` [Example 6, Methyl 4,9-dioxo-2-(trifluoromethyl)-4,9-dihydronaphtho[2,3-b]furan-3-carboxylate], the half-inhibitory concentration (IC50) in the data set with HT-29 cell [1] turned out to be 2840 nM; with HCT-116 cell [2], 2350 nM; with FaDu cell [3] it was 2610 nM; in the data set on HT-29 cell [4] it was 3050 nM; in the data set with HCT-116 cell [5], 2830 nM; in the data set with FaDu cell [6], 3630 nM.

As for `CN(C)C(=O)c1c(C(F)(F)F)oc2c1C(=O)c1ccccc1C2=O` [Example 21, N,N-dimethyl-4,9-dioxo-2-(trifluoromethyl)-4,9-dihydronaphtho[2,3-b]furan-3-carboxamide], the solubility in “Test 3: solubility test” (setting [7]) is 38 µg/mL (≈ 113 µM); in “Test 3: solubility test” (setting [8]), 63 µg/mL (≈ 187 µM). For the same molecule, the IC50 is 300 nM in the data set with HT-29 cell [1]; 270 nM in the data set on HCT-116 cell [2]; 300 nM in the data set with FaDu cell [3]; 320 nM in the data set with HT-29 cell [4]; 320 nM in the data set on HCT-116 cell [5]; 410 nM in the data set on FaDu cell [6].

With `COC(=O)c1c(C(C)=O)oc2c1C(=O)c1ccccc1C2=O` [Example 2, Methyl 2-acetyl-4,9-dioxo-4,9-dihydronaphtho[2,3-b]furan-3-carboxylate], the values for the solubility in the data set “Test 3: solubility test” (setting [7]) and in the data set “Test 3: solubility test” (setting [8]) were 0.5 µg/mL (≈ 1.68 µM) and 0.8 µg/mL (≈ 2.68 µM), respectively. Further, the IC50 is 340 nM with HT-29 cell [1]; 280 nM in the data set with HCT-116 cell [2]; 320 nM in the data set with FaDu cell [3]; 400 nM in the data set on HT-29 cell [4]; 380 nM in the data set on HCT-116 cell [5]; 590 nM with FaDu cell [6].

(Values after US20190241535A1, “3-SUBSTITUTED CARBONYL-NAPHTHO[2,3-B]FURANE DERIVATIVE OR PHARMACEUTICALLY ACCEPTABLE SALT THEREOF” (Boston Biomedical, Inc., priority 2014, published 2019).)
